Reference: BindingDB's records for doi:10.7270/Q25H7DRT (Nmmlsc, 2010)

Biological target: T1, Citrate synthase, peroxisomal [1-24] (Saccharomyces cerevisiae, UniProt P08679)
T1 construct: 1-24
Test: CIT2-GFP expression modulators in yeast, dose response, flow cytometry, MLPCN hits (AID 2744)

T1 sequence (P08679 1-24): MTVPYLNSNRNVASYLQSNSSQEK

| Structure (SMILES) | EC50 |
| --- | --- |
| ClC(Cl)(c1nnnn1-c1ccccc1)c1nnnn1-c1ccccc1 [SMR000173835] | > 33 µM |
| O=C(Nc1ccccc1)ON=C1CCCC1 [cyclopentanone O-(anilinocarbonyl)oxime] | > 33 µM |
